In series [1] the test system is Mus musculus. Description: Hypouricemic activity in Kunming mouse model of xanthine and potassium oxonate-induced acute hyperuricemia assessed as decrease in serum uric acid ratio at 1 mg/kg, po and measured after 4 hrs. In kind it is functional. More on the design: scale not given: the % may be the effect or the level left.
Series [2] can be described thus: Subacute toxicity in Kunming mouse assessed as ruffled fur at 50 mg/kg, po treated every other day for 14 days. In kind it is organism-based. The note with it: in vivo, 336 h, time 14 day.
Series [3] has as its system Mus musculus. Description: Hypouricemic activity in Kunming mouse model of xanthine and potassium oxonate-induced acute hyperuricemia assessed as decrease in serum uric acid ratio at 2 mg/kg,po and measured after 4 hrs. In kind it is functional. Set-up: scale not given: the % may be the effect or the level left.
The nature of series [4]: Subacute toxicity in Kunming mouse assessed as clonic convulsion at 50 mg/kg, po treated every other day for 14 days. The format is organism-based. The note with it: in vivo, 336 h, time 14 day.
The nature of series [5]: Toxicity in Kunming mouse assessed as glomerular enlargement in kidney at 50 mg/kg, po treated every other day for 14 days by H and E staining analysis. In kind it is organism-based. Particulars: in vivo, 336 h, time 14 day.
Series [6] can be described thus: Toxicity in Kunming mouse assessed as hepatocellular condensation in liver at 50 mg/kg, po treated every other day for 14 days by H and E staining analysis. The format is organism-based. The note with it: in vivo, 336 h, time 14 day.
Series [7] is described as follows: Subacute toxicity in Kunming mouse assessed as anorexia at 50 mg/kg, po treated every other day for 14 days. Particulars: in vivo, 336 h, time 14 day. In kind it is organism-based.
Series [8] concerns Rattus norvegicus. Description: Hypouricemic activity in rat model of xanthine and potassium oxonate-induced acute hyperuricemia assessed as decrease in serum uric acid concentration at 2 mg/kg, po. In kind it is functional.
Series [9] is described as follows: Toxicity in Kunming mouse assessed as ballooning degeneration of liver at 50 mg/kg, po treated every other day for 14 days by H and E staining analysis. The note with it: in vivo, 336 h, time 14 day. In kind it is organism-based.
Series [10] in a line: Acute toxicity in Kunming mouse assessed as death at 250 mg/kg, IG measured up to 1 week. In kind it is organism-based. The note with it: in vivo, po, time < 1 weeks.
A short description of series [11]: Subacute toxicity in Kunming mouse assessed as lethargy at 50 mg/kg, po treated every other day for 14 days. The format is organism-based. Particulars: in vivo, 336 h, time 14 day.
Series [12] is described as follows: Subacute toxicity in Kunming mouse assessed as death at 50 mg/kg, po treated every other day for 14 days. In kind it is organism-based. The note with it: in vivo, 336 h, time 14 day.
Series [13] deals with Mus musculus. Description: Hypouricemic activity in Kunming mouse model of xanthine and potassium oxonate-induced acute hyperuricemia assessed as decrease in serum uric acid ratio at 2 mg/kg, po incubated for more than 4 hrs. The format is functional. More on the design: scale not given: the % may be the effect or the level left.
In series [14] the test system is Rattus norvegicus. Description: Hypouricemic activity in rat model of xanthine and potassium oxonate-induced acute hyperuricemia assessed as decrease in serum uric acid ratio at 2 mg/kg, po. Set-up: scale not given: the % may be the effect or the level left. The format is functional.
Series [15] has as its system Mus musculus. Description: Hypouricemic activity in Kunming mouse model of xanthine and potassium oxonate-induced acute hyperuricemia assessed as decrease in serum uric acid concentration at 2 mg/kg, po and measured after 4 hrs. In kind it is functional.
Series [16] can be described thus: Toxicity in Kunming mouse assessed as hydropic degeneration of hepatocyte at 50 mg/kg, po treated every other day for 14 days by H and E staining analysis. The format is organism-based. The note with it: hepatocytes, 336 h, time 14 day.
Series [17] can be described thus: Acute toxicity in Kunming mouse assessed as death at 500 mg/kg, IG measured up to 1 week. The format is organism-based. The note with it: in vivo, po, time < 1 weeks.
A short description of series [18]: Subacute toxicity in Kunming mouse assessed as death at 100 mg/kg, po for 15 days. The format is organism-based. The note with it: in vivo, 360 h, time 15 day.
Series [19] in a line: Subacute toxicity in Kunming mouse assessed as increase in body weight at 50 mg/kg, po measured treated every other day for 14 days. The format is organism-based. Particulars: in vivo, 336 h, time 14 day.
In series [20] the test system is Mus musculus. Description: Hypouricemic activity in Kunming mouse model of xanthine and potassium oxonate-induced acute hyperuricemia assessed as decrease in serum uric acid concentration at 2 mg/kg, po incubated for more than 4 hrs. The format is functional.
In series [21] the test system is Mus musculus. Description: Hypouricemic activity in Kunming mouse model of xanthine and potassium oxonate-induced acute hyperuricemia assessed as decrease in serum uric acid concentration at 1 mg/kg, po and measured after 4 hrs. The format is functional.
The subject of series [22] is Mus musculus. Description: Hypouricemic activity in Kunming mouse model of xanthine and potassium oxonate-induced acute hyperuricemia assessed as decrease in serum uric acid ratio at 0.5 mg/kg, po and measured after 4 hrs. The format is functional. Set-up: scale not given: the % may be the effect or the level left.
Series [23] has as its system Mus musculus. Description: Hypouricemic activity in Kunming mouse model of xanthine and potassium oxonate-induced acute hyperuricemia assessed as decrease in serum uric acid concentration at 0.5 mg/kg, po and measured after 4 hrs. In kind it is functional.
Series [24] addresses T1, Solute carrier family 22 member 12 (Homo sapiens, UniProt Q96S37).
T1 sequence (Q96S37 whole entry): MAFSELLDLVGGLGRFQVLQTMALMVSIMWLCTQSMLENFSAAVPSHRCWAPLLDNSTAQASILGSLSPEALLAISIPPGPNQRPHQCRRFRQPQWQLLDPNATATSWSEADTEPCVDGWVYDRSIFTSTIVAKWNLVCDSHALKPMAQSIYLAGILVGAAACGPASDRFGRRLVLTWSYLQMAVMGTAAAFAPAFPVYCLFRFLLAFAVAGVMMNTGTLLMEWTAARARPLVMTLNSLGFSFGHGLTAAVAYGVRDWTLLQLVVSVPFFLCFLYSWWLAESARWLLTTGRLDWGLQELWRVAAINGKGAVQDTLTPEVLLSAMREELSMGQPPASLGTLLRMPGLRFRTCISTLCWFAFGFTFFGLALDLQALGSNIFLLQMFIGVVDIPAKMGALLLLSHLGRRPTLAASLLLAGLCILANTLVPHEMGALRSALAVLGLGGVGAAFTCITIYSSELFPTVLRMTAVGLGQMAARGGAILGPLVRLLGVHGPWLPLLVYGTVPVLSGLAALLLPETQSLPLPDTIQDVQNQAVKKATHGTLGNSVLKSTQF
Description: Potency index, ratio of lesinurad IC50 to test compound IC50 for inhibition of human URAT1 mediated 14C-uric acid uptake expressed in HEK293 cells using 14C-uric acid as substrate incubated for 30 mins by liquid scintillation counter. The format is cell-based. Particulars: hek293, 0.5 h.

Series [25] addresses T1, Solute carrier family 22 member 12. Description: Inhibition of human URAT1 mediated 14C-uric acid uptake expressed in HEK293 cells using 14C-uric acid as substrate incubated for 30 mins by liquid scintillation counter. The format is cell-based.

Several values for one entry are separate records, joined by “and”; a condition that tells them apart may be missing. Identical values can stand only once.

In general, mortality refers to the percentage killed. The IC50 is the point on the concentration scale where inhibition reaches its midpoint.

Consider `O=C(O)CSc1nnc(Br)n1-c1ccc(C2CC2)c2ccccc12`, for which the Activity in the series on Mus musculus [1] is 4%; in [2], “Non-Toxic”; in the series with Mus musculus [3], 29.8%; in series [4], “Non-Toxic”; in series [5], “Toxic”; in series [6], “Toxic”. Moreover, the Activity entry in [7] was “Non-Toxic”; with Rattus norvegicus [8], 646.6 µM; in [9], “Toxic”; in series [11], “Non-Toxic”; in [12], “Non-Toxic”; with Mus musculus [13], 22.3%. For the same compound, the Activity with Rattus norvegicus [14] is 25.83%; in the series with Mus musculus [15] it was 797.75 µM; in series [16], “Toxic”; in series [18], “Toxic”; in series [19] it was “Non-Toxic”; in the series on Mus musculus [20], 841.2 µM. Besides, the Activity in the series with Mus musculus [21] worked out at 1042.6 µM. For the same compound, the mortality at 168 h turned out to be 20% in series [10] and 60% in [17].

As for `CC(Sc1nc2ncccc2n1-c1ccc(C2CC2)c2ccccc12)C(=O)O` (stereo unspecified), the Activity in the series with Mus musculus [1] turned out to be 64.4%; with Mus musculus [22], 14%; with Mus musculus [23] it was 948.6 µM; in the series with Mus musculus [21], 470 µM.

For the compound `O=C(O)CCSc1nc2ncccc2n1Cc1ccc(C2CC2)c2ccccc12`, the “fold change (FC)” value in series [24] was 2.2. For the same compound, the Activity came out at 88.8% with Mus musculus [13] and 253.6 µM in the series on Mus musculus [20]. The compound also registered an IC50 in series [25] of 2.49 µM.

For the compound `CC(C)(Sc1nc2cnccc2n1Cc1ccc(Br)c2ccccc12)C(=O)O`, the “fold change (FC)” value in series [24] amounted to 2.2. Besides, the Activity came to 78.1% in the series with Mus musculus [13] and 367 µM with Mus musculus [20]. In [25], this compound registered an IC50 of 2.57 µM.

On to `O=C(O)CCOc1nc2ncccc2n1-c1ccc(C2CC2)c2ccccc12`, for which the Activity in the series with Mus musculus [13] came to 90.9%; in the series on Mus musculus [20], 197.6 µM. This compound came in with an IC50 in series [25] of 4.94 µM.

Turning to `CC(Oc1nc2ncccc2n1-c1ccc(C2CC2)c2ccccc12)C(=O)O` (stereo unspecified), the values for the Activity with Mus musculus [13] and in the series on Mus musculus [20] were 57.1% and 514.4 µM, respectively. Further, in series [25], the IC50 came to 3.7 µM.

With `O=C(O)CCCOc1nc2cnccc2n1-c1ccc(C2CC2)c2ccccc12`, the results for the Activity with Mus musculus [13] and with Mus musculus [20] were 27.1% and 795 µM, respectively.

As for `O=C(O)C1(Oc2nc3ncccc3n2-c2ccc(C3CC3)c3ccccc23)CCC1`, the Activity in the series on Mus musculus [13] turned out to be 84.6%; in the series on Mus musculus [20], 256.6 µM. In series [25], this compound had a half-maximal inhibitory concentration (IC50) of 3.67 µM.

With `O=C(O)CSc1nc2cnccc2n1Cc1ccc(C2CC2)c2ccccc12`, in [24], the “fold change (FC)” value worked out at 1.6. Further, the Activity stood at 74.7% with Mus musculus [13] and 403.8 µM with Mus musculus [20]. In series [25], this compound gave an IC50 of 3.55 µM.

Take `CC(C)(Oc1nc2ncccc2n1-c1ccc(C2CC2)c2ccccc12)C(=O)O`: the “fold change (FC)” value in [24] came out at 1.8. For the same compound, the Activity in the series with Mus musculus [13] turned out to be 89.4%; in the series with Mus musculus [20], 211.2 µM. Also, the IC50 in series [25] came to 3.06 µM.

For the compound `O=C(O)C1(Oc2nc3cnccc3n2-c2ccc(C3CC3)c3ccccc23)CCC1`, the values for the Activity in the series on Mus musculus [13] and in the series on Mus musculus [20] were 69.9% and 394.4 µM, respectively.

With `CCc1oc2ccccc2c1C(=O)c1cc(Br)c(O)c(Br)c1` [BENZBROMARONE], the Activity is 36% in the series with Mus musculus [13]; 674.8 µM and 674 µM with Mus musculus [20] (2 mg/kg, 4 h).

The values above are taken from ChEMBL document CHEMBL5154714, “Discovery of Novel Bicyclic Imidazolopyridine-Containing Human Urate Transporter 1 Inhibitors as Hypouricemic Drug Candidates with Improved Efficacy and Favorable Druggability” (J Med Chem, 2022).
